Data from patent EP1799188B1, “USE OF PEPTIDES AS AN ANTIOXIDANT AGENT FOR THE PREPARATION OF A COSMETIC AND/OR PHARMACEUTICAL COMPOSITION” (Ashland Specialties France, priority 2004, dated 2015).

Test system: fibroblastes primaires
Assay: Neutral red uptake cytotoxicity / cell viability test
Assay type: cell-based
Settings: actif 1 %
Method: Des fibroblastes primaires sont ensemencés sur une plaque 96 puits (à 20000 cellules par puits environ). Une fois que les cellules ont atteint 70 % de confluence, le dipeptide dimérisé Cys-Gly selon l'invention, dilué à 1 %, est appliqué sur la plaque durant 24 heures. Une moitié de la plaque est alors irradiée par des UVB à 100 mJ/cm^2 et l'autre moitié non irradiée. Les cellules sont ensuite remises en culture pendant 24 h en présence de l'actif, puis incubées en présence de rouge neutre.
Le rouge neutre (un colorant « supravital ») se fixe spécifiquement aux lysosomes des cellules vivantes, la coloration sera ainsi proportionnelle à la viabilité des cellules. Après l'ajout d'une solution de révélation, solubilisant le rouge neutre, l'absorbance est mesurée à 540 nm.
Les résultats obtenus, représentés dans le tableau ci-dessous, représentent le pourcentage de viabilité cellulaire en fonction des différentes conditions étudiées, par rapport à la condition contrôle.

Compound: N[C@@H](CSSC[C@H](N)C(=O)NCC(=O)O)C(=O)NCC(=O)O [actif]
- cytotoxicité (nocivité pour les cellules): n'est pas nocif pour les cellules
